Tests used:
TBK1 = biological target: T1, TBK1 (Homo sapiens, UniProt Q9UHD2); experiment: In-vitro TBK1 kinase assay ([γ33]ATP filter-plate); assay type: biochemical; details: text bins; read-out: IC50 for inhibition of the kinase activity of TBK1
T1 construct: His-tag; made in house; host or cells: Sf9 insect cells
T1 sequence (Q9UHD2 1-729): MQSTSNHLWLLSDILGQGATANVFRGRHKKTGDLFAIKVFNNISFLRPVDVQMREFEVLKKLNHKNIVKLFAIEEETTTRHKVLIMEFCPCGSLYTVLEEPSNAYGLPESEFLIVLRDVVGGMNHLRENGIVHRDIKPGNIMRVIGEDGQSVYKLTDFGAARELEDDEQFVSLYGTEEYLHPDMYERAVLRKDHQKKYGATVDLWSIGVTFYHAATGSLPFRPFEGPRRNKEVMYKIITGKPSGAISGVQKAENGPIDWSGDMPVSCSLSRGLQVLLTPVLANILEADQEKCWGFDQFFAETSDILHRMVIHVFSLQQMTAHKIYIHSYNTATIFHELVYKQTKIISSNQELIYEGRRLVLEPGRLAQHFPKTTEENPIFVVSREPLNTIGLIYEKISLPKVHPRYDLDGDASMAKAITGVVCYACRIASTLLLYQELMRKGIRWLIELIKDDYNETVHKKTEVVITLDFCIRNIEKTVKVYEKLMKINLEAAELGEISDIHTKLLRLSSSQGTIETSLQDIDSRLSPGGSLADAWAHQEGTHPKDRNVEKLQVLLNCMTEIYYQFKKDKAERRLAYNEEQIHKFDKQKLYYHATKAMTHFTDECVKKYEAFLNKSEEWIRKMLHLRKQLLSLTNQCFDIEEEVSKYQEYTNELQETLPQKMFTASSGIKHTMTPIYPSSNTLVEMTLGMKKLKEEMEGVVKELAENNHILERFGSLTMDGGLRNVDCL
Procedure: IKKε enzyme was produced as a His-tag fusion in Sf9 cells and used at a final concentration of […]. TBK1 enzyme was produced as a His-tag fusion in Sf9 cells and used at a final concentration of 0.1 μg/ml. Kinase reactions were carried out in reaction buffer using myelin basic protein (Millipore, Ballerica, Mass.) or casein (Sigma, St. Louis, Mo.) as substrate at an ATP concentration equal to twice the Km,ATP value for each enzyme, corresponding to 32 μM ATP for IKKε and 60 μM ATP for TBK1, in the presence of 0.3 μCi [γ^33]ATP (PerkinElmer, Waltham, Mass.). Final enzyme concentrations were 0.1 or 0.015 μg/ml (IKKε) and 0.1 or 0.02 μg/ml (TBK1), representing “normal” and “sensitized” assay conditions respectively. Test compounds (or DMSO solvent as a control) were added prior to initiation of the reactions. Reactions were terminated after 30-45 minutes by adding 3% phosphoric acid. Terminated reactions were transferred to P-81 cellulose phosphate filterplates (Whatman, Inc., Piscataway, N.J.) and washed with 1% phosphoric acid on a vacuum apparatus. After air drying, scintillant (PerkinElmer, Waltham, Mass.) was added and the plates were read on a PerkinElmer TopCount NXT instrument. Counts were normalized to DMSO controls after background subtraction.

IKKε = biological target: T2, IKKε (Homo sapiens, UniProt Q14164); experiment: In-vitro IKKε kinase assay ([γ33]ATP filter-plate); assay type: biochemical; details: text bins; read-out: IC50 for inhibition of the kinase activity of IKKε
T2 construct: His-tag; made in house; host or cells: Sf9 insect cells
T2 sequence (Q14164 1-716): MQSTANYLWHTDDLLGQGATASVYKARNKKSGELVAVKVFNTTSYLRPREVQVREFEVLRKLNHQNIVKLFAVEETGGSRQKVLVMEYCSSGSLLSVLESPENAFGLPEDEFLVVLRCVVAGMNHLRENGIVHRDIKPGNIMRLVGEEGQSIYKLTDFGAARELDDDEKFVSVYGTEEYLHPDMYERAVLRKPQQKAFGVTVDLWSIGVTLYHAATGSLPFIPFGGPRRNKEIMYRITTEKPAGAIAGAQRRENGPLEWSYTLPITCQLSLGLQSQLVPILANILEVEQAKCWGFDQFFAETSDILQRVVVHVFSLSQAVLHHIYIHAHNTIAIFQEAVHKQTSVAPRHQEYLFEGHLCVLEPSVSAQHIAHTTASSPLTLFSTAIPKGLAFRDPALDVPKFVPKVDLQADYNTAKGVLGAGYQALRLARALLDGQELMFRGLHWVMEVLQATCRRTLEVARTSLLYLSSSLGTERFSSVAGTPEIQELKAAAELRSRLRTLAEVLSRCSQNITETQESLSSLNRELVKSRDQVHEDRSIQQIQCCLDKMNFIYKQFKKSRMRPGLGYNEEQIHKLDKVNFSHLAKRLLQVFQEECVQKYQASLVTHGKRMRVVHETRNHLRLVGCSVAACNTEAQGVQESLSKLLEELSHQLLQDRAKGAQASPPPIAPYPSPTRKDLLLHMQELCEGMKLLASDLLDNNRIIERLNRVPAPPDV
Method in brief: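 His-tagged IKKε and TBK1 from Sf9 cells were assayed with myelin basic protein or casein and [γ33]ATP at 2×Km ATP (32 μM for IKKε, 60 μM for TBK1). Enzyme was 0.1 or 0.015 μg/ml for IKKε and 0.1 or 0.02 μg/ml for TBK1 (normal/sensitized). Reactions ran 30-45 min, were filter-captured, scintillation-counted, and normalized to DMSO after background subtraction.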

IC50 (TBK1)	IC50 (IKKε)	SMILES
< 10 nM	5 to 50 nM	COc1ccc(-c2ccnc(Nc3ccc(N4CCN(C(C)C)C(=O)C4)c(OC)c3)n2)cc1C#N [Example 38, 2-Methoxy-5-[2-({3-methoxy-4-[3-oxo-4-(propan-2-yl)piperazin-1-yl]phenyl}amino)pyrimidin-4-yl]benzonitrile]
10 to 100 nM	50 to 500 nM	COc1ccc(-c2ccnc(Nc3ccc(CN(C)C)cc3)n2)cc1C#N [Example 45, 5-[2-({4-[(Dimethylamino)methyl]phenyl}amino)pyrimidin-4-yl]-2-methoxybenzonitrile]
10 to 100 nM	5 to 50 nM	COc1ccc(-c2ccnc(Nc3ccc(OC)c(OC)c3)n2)cc1C#N [Example 48, 5-{2-[(3,4-Dimethoxyphenyl)amino]pyrimidin-4-yl}-2-methoxybenzonitrile]
< 10 nM	5 to 50 nM	N#Cc1cc(-c2ccnc(Nc3ccc(N4CCOCC4)cc3)n2)ccc1OC1CCN(CCO)CC1 [Example 49, 2-{[1-(2-Hydroxyethyl)piperidin-4-yl]oxy}-5-(2-{[4-(morpholin-4-yl)phenyl]amino}pyrimidin-4-yl)benzonitrile]
10 to 100 nM	5 to 50 nM	N#Cc1cc(-c2ccnc(Nc3ccc(N4CCOCC4)cc3)n2)ccc1NC(=O)C1CCCCC1 [Example 54, N-[2-cyano-4-(2-{[4-(morpholin-4-yl)phenyl]amino}pyrimidin-4-yl)phenyl] cyclohexane-carboxamide]
100 to 500 nM	50 to 500 nM	N#Cc1cccc(-c2ccnc(Nc3ccc(N)cc3)n2)c1 [Example 55, 3-{2-[(4-Aminophenyl)amino]pyrimidin-4-yl}benzonitrile]
10 to 100 nM	5 to 50 nM	CC(C)NC(=O)Nc1ccc(-c2ccnc(Nc3ccc(N4CCOCC4)cc3)n2)cc1C#N [Example 60, 1-[2-cyano-4-(2-{[4-(morpholin-4-yl)phenyl]amino}pyrimidin-4-yl)phenyl]-3-propan-2-ylurea]
10 to 100 nM	5 to 50 nM	COC(=O)C(C)Oc1ccc(-c2ccnc(Nc3ccc(N4CCOCC4)cc3)n2)cc1C#N (stereo not shown) [Example 63, Methyl 2-[2-cyano-4-(2-{[4-(morpholin-4-yl)phenyl]amino}pyrimidin-4-yl)phenoxy] propanoate]
< 10 nM	5 to 50 nM	COc1ccc(-c2ccnc(Nc3ccc(N4CCC(N5CCN(C)CC5)CC4)c(OC)c3)n2)cc1C#N [Example 65, 2-Methoxy-5-[2-({3-methoxy-4-[4-(4-methylpiperazin-1-yl)piperidin-1-yl]phenyl}amino)pyrimidin-4-yl]benzonitrile]
10 to 100 nM	5 to 50 nM	COc1ccc(-c2ccnc(Nc3cccc(CN(C)CC(=O)N(C)C)c3)n2)cc1C#N [Example 67, N~2~-(3-{[4-(3-Cyano-4-methoxyphenyl)pyrimidin-2-yl]amino}benzyl)-N,N,N~2~- trimethylglycinamide]
< 10 nM	< 5 nM	COc1ccc(-c2ccnc(Nc3ccc(N(C)CC(=O)N(C)C)c(OC)c3)n2)cc1C#N [Example 68, N~2~-(4-{[4-(3-Cyano-4-methoxyphenyl)pyrimidin-2-yl]amino}-2-methoxyphenyl)-N,N,N~2~- trimethylglycinamide]
10 to 100 nM	5 to 50 nM	COc1ccc(-c2ccnc(Nc3cccc(NC(C)=O)c3)n2)cc1C#N [Example 70, N-(3-{[4-(3-Cyano-4-methoxyphenyl)pyrimidin-2-yl]amino}phenyl) acetamide]
10 to 100 nM	5 to 50 nM	COc1ccc(-c2ccnc(Nc3ccc(N4CCNC(=O)C4)cc3)n2)cc1C#N [Example 71, 2-Methoxy-5-(2-{[4-(3-oxopiperazin-1-yl)phenyl]amino}pyrimidin-4-yl)benzonitrile]
< 10 nM	< 5 nM	CS(=O)(=O)N1CCC(COc2ccc(-c3ccnc(Nc4ccc(N5CCOCC5)cc4)n3)cc2C#N)CC1 [Example 76, 2-{[1-(methylsulfonyl)piperidin-4-yl]methoxy}-5-(2-{[4-(morpholin-4-yl)phenyl]amino}pyrimidin-4-yl)benzonitrile]

— patent publication US20150352108A1, “AMINO-PYRIMIDINE COMPOUNDS AS INHIBITORS OF TBK1 AND/OR IKK EPSILON” (Alzheimer's Institute of America, priority 2009, published 2015)
